Data from publication PMC10112710 (Nature, 2022).
Changes are numbered by the printed parent chain.

How the values were obtained:
Drosophila Sestrin [1] = target: T1, Drosophila Sestrin (Drosophila melanogaster, UniProt A0A0B4LGG4); type: binding; conditions: pH 7.4, on ice, 1 h; 150 mM KCl, 2.5 mM MgCl2, 0.1% Triton; Kd derived from IC50
T1 sequence (A0A0B4LGG4 1-467): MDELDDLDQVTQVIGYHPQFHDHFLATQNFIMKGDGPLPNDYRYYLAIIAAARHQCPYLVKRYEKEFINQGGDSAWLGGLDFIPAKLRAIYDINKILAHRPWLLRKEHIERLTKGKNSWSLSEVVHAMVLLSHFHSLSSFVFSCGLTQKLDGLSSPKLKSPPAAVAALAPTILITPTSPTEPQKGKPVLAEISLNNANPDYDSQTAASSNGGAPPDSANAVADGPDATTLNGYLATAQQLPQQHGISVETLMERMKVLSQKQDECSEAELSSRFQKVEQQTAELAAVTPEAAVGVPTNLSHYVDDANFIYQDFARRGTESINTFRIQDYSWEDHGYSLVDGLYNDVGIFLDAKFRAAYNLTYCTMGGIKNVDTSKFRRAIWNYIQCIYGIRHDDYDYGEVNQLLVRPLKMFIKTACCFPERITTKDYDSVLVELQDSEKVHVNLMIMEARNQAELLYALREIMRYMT

Drosophila Sestrin [2] = target: T2, Drosophila Sestrin (Drosophila melanogaster, UniProt A0A0B4LGG4, L431E); assay: [3H]-leucine binding on immunopurified HA-tagged Sestrin; conditions: pH 7.4, on ice, 1 h; labelled compound; no binding detected
T2 sequence (A0A0B4LGG4 1-467 L431E): T1 sequence (A0A0B4LGG4 1-467) with L431E

CC(C)C[C@H](N)C(=O)O [leucine]
Kd (Drosophila Sestrin [1]): ~100 µM
does not bind (Drosophila Sestrin [2]): fly Sestrin L431E does not bind leucine (Fig. 1b)
